According to patent US20160102052A1, “Use of Cysteamine in Treating Infections caused by Yeasts/Moulds” (priority 2014, published 2016):

Test system: Exophiala dermatitidis CA01
Test: Broth microdilution chequerboard analysis of Lynovex (NM001) in combination with clinical antifungals
Assay type: cell-based
Details: 35° C.; for MIC50: Exophiala dermatitidis, NM001 in isolation
Procedure: The aim of the experiment was to determine the effect of Lynovex (NM001) on the antifungal drug susceptibility of Exophiala dermatitidis CA01. Microtitre plates were prepared following CLSI recommendations for broth microdilution chequerboard method. These plates contained a serial doubling dilution of Lynovex (NM001) combined with serial doubling dilutions of antifungals drugs; Fluconazole, Itraconazole, Caspofungin and Amphotericin B. […] These were incubated at 35° C. and read at 72 h, 96 h, 120 h and 144 h on the BioTek plate reader. […] Three independent E. dermatitidis CA01 cultures were grown on PDA slope for 6 days at 35° C. • 7. Cultures were removed from incubator. 2 ml sterile 0.15M NaCl added to the overnight culture and cells harvested from the surface of the agar. Cells placed in fresh bijou tube. • 8. The cultures were allowed to rest for up to 10 minutes, allowing any hyphae to settle to the bottom. The top layer of conidia was removed into fresh bijou. Hyphae were discarded. • 9. […] This is continued to F12 where 100 μl is removed and discarded. • f. This dilution series was repeated in rows G-H for the remaining 2 cultures • g. Plate read at OD530 on BioTek • h. […] This preparation step occurs in two parts. First, Lynovex (NM001) and antifungals are serially diluted, down and across microtitre plates, respectively. Equal volumes of Lynovex and antifungal are then combined in a fresh microtitre plate, prior to inoculation. […] Stock solutions of Lynovex and antifungals were prepared at 4× desired concentrations. The plate layout at the end of this protocol is the final concentration in the plate following the combination of Lynovex and antifungals and the addition of the inocula. […] All other wells contain 150 μl sterile dH2O. • 9. Serial doubling dilutions are carried out from A to B whereby 150 μl is removed from A and placed into B and mixed well. Then take 150 μl B and place in C and mix well. This is repeated down to row G where the final 150 μl is discarded. […] The same procedure is repeated for the other 4 antifungals, carrying the dilutions across the plate i.e. […] At the final dilution in column 10, the final 150 μl is discarded. […] Inoculating Plates with E. dermatitidis CA01 • 6. Add 100 μl (total volume 200 μl) of the prepared E. dermatitidis CA01 culture to the all wells on the plate except wells H12. […] H12 will contain 100 μl water and 100 μl 2×RPMI-1640 alone, constituting an uninoculated control. • 8. The plate is read in the BioTek at OD530. • 9. Plates are then placed in a plastic box containing a Petri dish of water, sealed and incubated at 35° C. The presence of the water in the dish or on the tissue provides and environment of relatively high humidity. • 10. OD530 is then read at 72 h, 96 h, 120 h and 144 h and raw data processed using Microsoft Excel. • 11. Fractional Inhibitory Concentration (FIC) Index values are generated using MIC100 for 72 h data and MIC50 for later time points using the following formula: […]

## NCCS [NM001, cysteamine]
CA01, 72 h, GEOMEAN, Amphotericin B chequerboard, 72 h
  MIC50: 461 µg/mL
CA01, 72 h, GEOMEAN, Caspofungin chequerboard, 72 h
  MIC50: 1250 µg/mL
CA01, 72 h, GEOMEAN, Fluconazole chequerboard, 72 h
  MIC50: 1250 µg/mL
CA01, 72 h, GEOMEAN, Itraconazole chequerboard, 72 h
  MIC50: 1250 µg/mL
CA01, 72 h, MEAN, Amphotericin B chequerboard, 72 h
  MIC50: 667 µg/mL
CA01, 72 h, MEAN, Caspofungin chequerboard, 72 h
  MIC50: 1460 µg/mL
CA01, 72 h, MEAN, Fluconazole chequerboard, 72 h
  MIC50: 1250 µg/mL
CA01, 72 h, MEAN, Itraconazole chequerboard, 72 h
  MIC50: 1510 µg/mL
CA01, 72 h, Range, Amphotericin B chequerboard, 72 h
  MIC50: 125 to 1250 µg/mL
CA01, 72 h, Range, Caspofungin chequerboard, 72 h
  MIC50: 625 to 2500 µg/mL
CA01, 72 h, Range, Fluconazole chequerboard, 72 h
  MIC50: 1250 µg/mL
CA01, 72 h, Range, Itraconazole chequerboard, 72 h
  MIC50: 312 to 2500 µg/mL
CA01, 96 h, GEOMEAN, Amphotericin B chequerboard, 96 h
  MIC50: 625 µg/mL
CA01, 96 h, GEOMEAN, Caspofungin chequerboard, 96 h
  MIC50: 1090 µg/mL
CA01, 96 h, GEOMEAN, Fluconazole chequerboard, 96 h
  MIC50: 787 µg/mL
CA01, 96 h, GEOMEAN, Itraconazole chequerboard, 96 h
  MIC50: 1130 µg/mL
CA01, 96 h, MEAN, Amphotericin B chequerboard, 96 h
  MIC50: 885 µg/mL
CA01, 96 h, MEAN, Caspofungin chequerboard, 96 h
  MIC50: 1530 µg/mL
CA01, 96 h, MEAN, Fluconazole chequerboard, 96 h
  MIC50: 885 µg/mL
CA01, 96 h, MEAN, Itraconazole chequerboard, 96 h
  MIC50: 1520 µg/mL
CA01, 96 h, Range, Amphotericin B chequerboard, 96 h
  MIC50: 156 to 1250 µg/mL
CA01, 96 h, Range, Caspofungin chequerboard, 96 h
  MIC50: 156 to 2500 µg/mL
CA01, 96 h, Range, Fluconazole chequerboard, 96 h
  MIC50: 312 to 1250 µg/mL
CA01, 96 h, Range, Itraconazole chequerboard, 96 h
  MIC50: 312 to 2500 µg/mL
CA01, 120 h, GEOMEAN, Amphotericin B chequerboard, 120 h
  MIC50: 743 µg/mL
CA01, 120 h, GEOMEAN, Caspofungin chequerboard, 120 h
  MIC50: 1440 µg/mL
CA01, 120 h, GEOMEAN, Fluconazole chequerboard, 120 h
  MIC50: 1770 µg/mL
CA01, 120 h, GEOMEAN, Itraconazole chequerboard, 120 h
  MIC50: 1250 µg/mL
CA01, 120 h, MEAN, Amphotericin B chequerboard, 120 h
  MIC50: 977 µg/mL
CA01, 120 h, MEAN, Caspofungin chequerboard, 120 h
  MIC50: 1750 µg/mL
CA01, 120 h, MEAN, Fluconazole chequerboard, 120 h
  MIC50: 1880 µg/mL
CA01, 120 h, MEAN, Itraconazole chequerboard, 120 h
  MIC50: 1500 µg/mL
CA01, 120 h, Range, Amphotericin B chequerboard, 120 h
  MIC50: 156 to 1250 µg/mL
CA01, 120 h, Range, Caspofungin chequerboard, 120 h
  MIC50: 625 to 2500 µg/mL
CA01, 120 h, Range, Fluconazole chequerboard, 120 h
  MIC50: 1250 to 2500 µg/mL
CA01, 120 h, Range, Itraconazole chequerboard, 120 h
  MIC50: 625 to 2500 µg/mL
CA01, 144 h, GEOMEAN, Amphotericin B chequerboard, 144 h
  MIC50: 787 µg/mL
CA01, 144 h, GEOMEAN, Caspofungin chequerboard, 144 h
  MIC50: 1580 µg/mL
CA01, 144 h, GEOMEAN, Fluconazole chequerboard, 144 h
  MIC50: 1490 µg/mL
CA01, 144 h, GEOMEAN, Itraconazole chequerboard, 144 h
  MIC50: 1770 µg/mL
CA01, 144 h, MEAN, Amphotericin B chequerboard, 144 h
  MIC50: 1300 µg/mL
CA01, 144 h, MEAN, Caspofungin chequerboard, 144 h
  MIC50: 1880 µg/mL
CA01, 144 h, MEAN, Fluconazole chequerboard, 144 h
  MIC50: 1720 µg/mL
CA01, 144 h, MEAN, Itraconazole chequerboard, 144 h
  MIC50: 2030 µg/mL
CA01, 144 h, Range, Amphotericin B chequerboard, 144 h
  MIC50: 156 to 2500 µg/mL
CA01, 144 h, Range, Caspofungin chequerboard, 144 h
  MIC50: 625 to 2500 µg/mL
CA01, 144 h, Range, Fluconazole chequerboard, 144 h
  MIC50: 625 to 2500 µg/mL
CA01, 144 h, Range, Itraconazole chequerboard, 144 h
  MIC50: 625 to 2500 µg/mL
GEOMEAN, in combination with Amphotericin B, 72 h
  NM001 MIC100 in Combination: 39 µg/mL
GEOMEAN, in combination with Amphotericin B, 96 h
  NM001 MIC50 in Combination: 55 µg/mL
GEOMEAN, in combination with Amphotericin B, 120 h
  NM001 MIC50 in Combination: 156 µg/mL
GEOMEAN, in combination with Amphotericin B, 144 h
  NM001 MIC50 in Combination: 442 µg/mL
GEOMEAN, in combination with Caspofungin, 72 h
  NM001 MIC100 in Combination: 78 µg/mL
GEOMEAN, in combination with Caspofungin, 96 h
  NM001 MIC50 in Combination: 90 µg/mL
GEOMEAN, in combination with Caspofungin, 120 h
  NM001 MIC50 in Combination: 118 µg/mL
GEOMEAN, in combination with Caspofungin, 144 h
  NM001 MIC50 in Combination: 394 µg/mL
GEOMEAN, in combination with Fluconazole, 72 h
  NM001 MIC100 in Combination: 312.5 µg/mL
GEOMEAN, in combination with Fluconazole, 96 h
  NM001 MIC50 in Combination: 139 µg/mL
GEOMEAN, in combination with Fluconazole, 120 h
  NM001 MIC50 in Combination: 263 µg/mL
GEOMEAN, in combination with Fluconazole, 144 h
  NM001 MIC50 in Combination: 263 µg/mL
GEOMEAN, in combination with Itraconazole, 72 h
  NM001 MIC100 in Combination: 179 µg/mL
GEOMEAN, in combination with Itraconazole, 96 h
  NM001 MIC50 in Combination: 78 µg/mL
GEOMEAN, in combination with Itraconazole, 120 h
  NM001 MIC50 in Combination: 136 µg/mL
GEOMEAN, in combination with Itraconazole, 144 h
  NM001 MIC50 in Combination: 197 µg/mL
MEAN, in combination with Amphotericin B, 72 h
  NM001 MIC100 in Combination: 39 µg/mL
MEAN, in combination with Amphotericin B, 96 h
  NM001 MIC50 in Combination: 59 µg/mL
MEAN, in combination with Amphotericin B, 120 h
  NM001 MIC50 in Combination: 221 µg/mL
MEAN, in combination with Amphotericin B, 144 h
  NM001 MIC50 in Combination: 469 µg/mL
MEAN, in combination with Caspofungin, 72 h
  NM001 MIC100 in Combination: 78 µg/mL
MEAN, in combination with Caspofungin, 96 h
  NM001 MIC50 in Combination: 102 µg/mL
MEAN, in combination with Caspofungin, 120 h
  NM001 MIC50 in Combination: 148 µg/mL
MEAN, in combination with Caspofungin, 144 h
  NM001 MIC50 in Combination: 417 µg/mL
MEAN, in combination with Fluconazole, 72 h
  NM001 MIC100 in Combination: 365 µg/mL
MEAN, in combination with Fluconazole, 96 h
  NM001 MIC50 in Combination: 176 µg/mL
MEAN, in combination with Fluconazole, 120 h
  NM001 MIC50 in Combination: 312.5 µg/mL
MEAN, in combination with Fluconazole, 144 h
  NM001 MIC50 in Combination: 400 µg/mL
MEAN, in combination with Itraconazole, 72 h
  NM001 MIC100 in Combination: 203 µg/mL
MEAN, in combination with Itraconazole, 96 h
  NM001 MIC50 in Combination: 89 µg/mL
MEAN, in combination with Itraconazole, 120 h
  NM001 MIC50 in Combination: 156.25 µg/mL
MEAN, in combination with Itraconazole, 144 h
  NM001 MIC50 in Combination: 208 µg/mL
Range, in combination with Amphotericin B, 72 h
  NM001 MIC100 in Combination: 39 µg/mL
Range, in combination with Amphotericin B, 96 h
  NM001 MIC50 in Combination: 39.0625 to 78.125 µg/mL
Range, in combination with Amphotericin B, 120 h
  NM001 MIC50 in Combination: 39.06 to 312.5 µg/mL
Range, in combination with Amphotericin B, 144 h
  NM001 MIC50 in Combination: 312.5 to 625 µg/mL
Range, in combination with Caspofungin, 72 h
  NM001 MIC100 in Combination: 78 µg/mL
Range, in combination with Caspofungin, 96 h
  NM001 MIC50 in Combination: 39.0625 to 156.25 µg/mL
Range, in combination with Caspofungin, 120 h
  NM001 MIC50 in Combination: 39.06 to 312.5 µg/mL
Range, in combination with Caspofungin, 144 h
  NM001 MIC50 in Combination: 312.5 to 625 µg/mL
Range, in combination with Fluconazole, 72 h
  NM001 MIC100 in Combination: 156 to 625 µg/mL
Range, in combination with Fluconazole, 96 h
  NM001 MIC50 in Combination: 39.06 to 156.25 µg/mL
Range, in combination with Fluconazole, 120 h
  NM001 MIC50 in Combination: 156.25 to 625 µg/mL
Range, in combination with Fluconazole, 144 h
  NM001 MIC50 in Combination: 39.0625 to 625 µg/mL
Range, in combination with Itraconazole, 72 h
  NM001 MIC100 in Combination: 78 to 312.5 µg/mL
Range, in combination with Itraconazole, 96 h
  NM001 MIC50 in Combination: 39.06 to 156.25 µg/mL
Range, in combination with Itraconazole, 120 h
  NM001 MIC50 in Combination: 78.13 to 312.5 µg/mL
Range, in combination with Itraconazole, 144 h
  NM001 MIC50 in Combination: 156.25 to 312.5 µg/mL
